The values below come from ChEMBL document CHEMBL1146164, “Synthesis and evaluation of aminomethyl dihydrocinnamates as a new class of PPAR ligands” (Bioorg Med Chem Lett, 2006).

One may read the IC50 as the concentration at which inhibition is half-maximal. As a reminder, the EC50 is the concentration that produces a half-maximal response. The ED50 is the midpoint of the dose-response relation.

The target of one experiment is T1, Peroxisome proliferator-activated receptor gamma (Homo sapiens, UniProt P37231).
T1 sequence (P37231 whole entry): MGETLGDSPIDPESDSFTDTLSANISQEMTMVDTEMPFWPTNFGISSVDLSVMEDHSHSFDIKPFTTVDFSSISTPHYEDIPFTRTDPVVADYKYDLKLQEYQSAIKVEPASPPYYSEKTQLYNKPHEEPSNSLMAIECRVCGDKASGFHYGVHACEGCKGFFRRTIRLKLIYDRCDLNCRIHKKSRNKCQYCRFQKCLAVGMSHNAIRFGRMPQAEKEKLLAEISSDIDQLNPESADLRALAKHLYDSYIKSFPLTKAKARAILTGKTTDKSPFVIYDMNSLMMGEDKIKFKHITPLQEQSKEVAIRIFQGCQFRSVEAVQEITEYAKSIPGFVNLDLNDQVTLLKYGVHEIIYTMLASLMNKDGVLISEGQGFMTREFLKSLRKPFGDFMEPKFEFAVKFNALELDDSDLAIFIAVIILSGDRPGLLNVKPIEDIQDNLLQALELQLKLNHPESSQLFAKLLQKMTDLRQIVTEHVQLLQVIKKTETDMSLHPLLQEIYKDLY
Details: not given
In the case of `Cc1oc(-c2ccccc2)nc1CCOc1ccc(CCC(=O)O)c(CNC(=O)Oc2cnccn2)c1`, 17 nM corresponded to half-maximal inhibition (IC50).

Take `Cc1oc(-c2ccccc2)nc1CCOc1ccc(CCC(=O)O)c(CNS(=O)(=O)Cc2ccccc2)c1`: it took 72 nM to reach half-maximal inhibition (IC50).

Consider `Cc1oc(-c2ccc(-c3ccccc3)cc2)nc1CCOc1ccc(CCC(=O)O)c(CNC(=O)OC(C)C)c1`, for which the IC50 turned out to be 47 nM.

As to `Cc1oc(-c2ccccc2)nc1CCOc1ccc(CCC(=O)O)c(CNC(=O)NCc2ccccc2)c1`, the IC50 was found to be 706 nM.

As for `Cc1oc(-c2ccccc2)nc1CCOc1ccc(CCC(=O)O)c(CNC(=O)CCc2ccccc2)c1`, half-maximal inhibition (IC50) required 161 nM.

In turn, `Cc1sc(N2CCOCC2)nc1CCOc1ccc(CCC(=O)O)c(CNC(=O)OC(C)C)c1` came in with an IC50 of 22 nM.

Turning to `Cc1oc(-c2ccc(-c3ncccn3)cc2)nc1CCOc1ccc(CCC(=O)O)c(CNC(=O)OC(C)C)c1`, the half-inhibitory concentration (IC50) worked out at 50 nM.

Consider `Cc1oc(-c2ccc(-c3ccccc3)cc2)nc1CCOc1ccc(CCC(=O)O)c(CNC(=O)Oc2cnccn2)c1`, for which the IC50 turned out to be 26 nM.

`Cc1oc(-c2ccc(Oc3ccccc3)cc2)nc1CCOc1ccc(CCC(=O)O)c(CNC(=O)OC(C)C)c1` had an IC50 of 50 nM.

Turning to `Cc1oc(-c2ccccc2)nc1CCOc1ccc(CCC(=O)O)c(CNC(=O)OCc2ccccc2)c1`, half-maximal inhibition (IC50) required 91 nM.

`Cc1oc(-c2ccccc2)nc1CCOc1ccc(CCC(=O)O)c(CNC(=O)OC(C)C)c1` showed an IC50 of 26 nM.

A further experiment concerns the target T2, Peroxisome proliferator-activated receptor alpha (Homo sapiens) (UniProt Q07869).
T2 sequence (whole entry): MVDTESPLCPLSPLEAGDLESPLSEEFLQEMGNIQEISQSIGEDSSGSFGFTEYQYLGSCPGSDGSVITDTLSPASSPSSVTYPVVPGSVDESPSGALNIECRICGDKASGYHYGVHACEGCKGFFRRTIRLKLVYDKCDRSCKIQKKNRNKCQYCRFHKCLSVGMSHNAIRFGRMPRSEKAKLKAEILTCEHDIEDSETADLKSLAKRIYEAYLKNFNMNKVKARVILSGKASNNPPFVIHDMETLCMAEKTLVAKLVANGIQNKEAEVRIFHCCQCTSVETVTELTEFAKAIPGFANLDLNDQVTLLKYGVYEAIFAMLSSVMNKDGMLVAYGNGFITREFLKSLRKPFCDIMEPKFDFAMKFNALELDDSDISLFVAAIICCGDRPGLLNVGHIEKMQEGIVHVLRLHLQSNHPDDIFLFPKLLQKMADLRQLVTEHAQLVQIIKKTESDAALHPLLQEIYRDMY
As to the kind of experiment: Activity at human PPARalpha in CV1 cells by CTF assay relative to 2-(4-{2-[3-(2,4-difluoro-phenyl)-1-heptyl-ureido]-ethyl}-phenoxy)-2-methyl-butyric acid. Type of experiment: cell-based. The note with it: CV-1.
As for `Cc1oc(-c2ccccc2)nc1CCOc1ccc(CCC(=O)O)c(CNC(=O)Oc2cnccn2)c1`, the Efficacy was found to be 60%.

As for `Cc1oc(-c2ccccc2)nc1CCOc1ccc(CCC(=O)O)c(CNS(=O)(=O)Cc2ccccc2)c1`, the Efficacy worked out at 33%.

`Cc1oc(-c2ccccc2)nc1CCOc1ccc(CCC(=O)O)c(CNC(=O)NCc2ccccc2)c1` showed an Efficacy of 5%.

`Cc1oc(-c2ccccc2)nc1CCOc1ccc(CCC(=O)O)c(CNC(=O)CCc2ccccc2)c1` came in with an Efficacy of 32%.

In turn, `Cc1sc(N2CCOCC2)nc1CCOc1ccc(CCC(=O)O)c(CNC(=O)OC(C)C)c1` came in with an Efficacy of 37%.

For the molecule `Cc1oc(-c2ccc(-c3ncccn3)cc2)nc1CCOc1ccc(CCC(=O)O)c(CNC(=O)OC(C)C)c1`, the Efficacy stood at 37%.

With `Cc1oc(-c2ccc(-c3ccccc3)cc2)nc1CCOc1ccc(CCC(=O)O)c(CNC(=O)Oc2cnccn2)c1`, the Efficacy amounted to 68%.

`Cc1oc(-c2ccc(Oc3ccccc3)cc2)nc1CCOc1ccc(CCC(=O)O)c(CNC(=O)OC(C)C)c1` yielded an Efficacy of 46%.

For the molecule `Cc1oc(-c2ccccc2)nc1CCOc1ccc(CCC(=O)O)c(CNC(=O)OCc2ccccc2)c1`, the Efficacy turned out to be 54%.

In turn, `Cc1oc(-c2ccccc2)nc1CCOc1ccc(CCC(=O)O)c(CNC(=O)OC(C)C)c1` yielded an Efficacy of 51%.

With `CC(C)(Oc1ccc(C(=O)c2ccc(Cl)cc2)cc1)C(=O)O` [FENOFIBRIC ACID], the Efficacy is 35%.

The target of the next experiment is T1, Peroxisome proliferator-activated receptor gamma.
Details: not given
The source holds these as a separate data set.
`Cc1oc(-c2ccccc2)nc1CCOc1ccc(CCC(=O)O)c(CNC(=O)Oc2cnccn2)c1` displayed an EC50 of 7 nM.

On to `Cc1oc(-c2ccccc2)nc1CCOc1ccc(CCC(=O)O)c(CNS(=O)(=O)Cc2ccccc2)c1`, for which the EC50 is 527 nM.

With `Cc1oc(-c2ccc(-c3ccccc3)cc2)nc1CCOc1ccc(CCC(=O)O)c(CNC(=O)OC(C)C)c1`, the EC50 stood at 19 nM.

With `Cc1oc(-c2ccccc2)nc1CCOc1ccc(CCC(=O)O)c(CNC(=O)NCc2ccccc2)c1`, the EC50 amounted to 2680 nM.

With `Cc1oc(-c2ccccc2)nc1CCOc1ccc(CCC(=O)O)c(CNC(=O)CCc2ccccc2)c1`, the EC50 was 1020 nM.

On to `Cc1sc(N2CCOCC2)nc1CCOc1ccc(CCC(=O)O)c(CNC(=O)OC(C)C)c1`, for which a half-maximal response (EC50) required 28 nM.

`Cc1oc(-c2ccc(-c3ncccn3)cc2)nc1CCOc1ccc(CCC(=O)O)c(CNC(=O)OC(C)C)c1`: the EC50 turned out to be 4 nM.

As for `Cc1oc(-c2ccc(-c3ccccc3)cc2)nc1CCOc1ccc(CCC(=O)O)c(CNC(=O)Oc2cnccn2)c1`, the EC50 amounted to 2 nM.

Molecule `Cc1oc(-c2ccc(Oc3ccccc3)cc2)nc1CCOc1ccc(CCC(=O)O)c(CNC(=O)OC(C)C)c1` came in with an EC50 of 2 nM.

Regarding `Cc1oc(-c2ccccc2)nc1CCOc1ccc(CCC(=O)O)c(CNC(=O)OCc2ccccc2)c1`, the 50% effective concentration (EC50) is 115 nM.

As to `Cc1oc(-c2ccccc2)nc1CCOc1ccc(CCC(=O)O)c(CNC(=O)OC(C)C)c1`, the midpoint of the response, the EC50, lay at 8 nM.

The subject of another experiment is Rattus norvegicus. The experiment in a line: Reduction of plasma glucose level in orally dosed Zucker diabetic fatty rat. Type of experiment: functional. The note with it: ZDF, po.
`Cc1oc(-c2ccc(-c3ccccc3)cc2)nc1CCOc1ccc(CCC(=O)O)c(CNC(=O)OC(C)C)c1` came in with an ED50 of 0.02 mg/kg.

`Cc1sc(N2CCOCC2)nc1CCOc1ccc(CCC(=O)O)c(CNC(=O)OC(C)C)c1` came in with an ED50 of 0.12 mg/kg.

For the molecule `Cc1oc(-c2ccc(-c3ncccn3)cc2)nc1CCOc1ccc(CCC(=O)O)c(CNC(=O)OC(C)C)c1`, the ED50 is 0.04 mg/kg.

As for `Cc1oc(-c2ccc(-c3ccccc3)cc2)nc1CCOc1ccc(CCC(=O)O)c(CNC(=O)Oc2cnccn2)c1`, the ED50 was found to be 0.03 mg/kg.

`Cc1oc(-c2ccc(Oc3ccccc3)cc2)nc1CCOc1ccc(CCC(=O)O)c(CNC(=O)OC(C)C)c1`: the 50% effect level (ED50) was put at a dose of 0.05 mg/kg.

The next experiment has as its target T3, Peroxisome proliferator-activated receptor alpha (Homo sapiens, UniProt Q07869).
T3 sequence (Q07869 whole entry): T2 sequence (whole entry)
The experiment in a line: Displacement of [3H]2-(4-{2-[3-(2,4-difluoro-phenyl)-1-heptyl-ureido]-ethyl}-phenoxy)-2-methyl-butyric acid from hPPARalpha.
Details: not given
(Loss of bound radioactivity is the signal in a displacement assay; it reports binding, not function.)
On to `Cc1oc(-c2ccccc2)nc1CCOc1ccc(CCC(=O)O)c(CNC(=O)Oc2cnccn2)c1`, for which the 50% inhibitory concentration (IC50) stood at 53 nM.

On to `Cc1oc(-c2ccccc2)nc1CCOc1ccc(CCC(=O)O)c(CNS(=O)(=O)Cc2ccccc2)c1`, for which the IC50 was 3390 nM.

With `Cc1oc(-c2ccc(-c3ccccc3)cc2)nc1CCOc1ccc(CCC(=O)O)c(CNC(=O)OC(C)C)c1`, the half-inhibitory concentration (IC50) is 3490 nM.

`Cc1oc(-c2ccccc2)nc1CCOc1ccc(CCC(=O)O)c(CNC(=O)NCc2ccccc2)c1` came in with an IC50 of more than 10000 nM.

`Cc1oc(-c2ccccc2)nc1CCOc1ccc(CCC(=O)O)c(CNC(=O)CCc2ccccc2)c1` came in with an IC50 of 4960 nM.

For the molecule `Cc1sc(N2CCOCC2)nc1CCOc1ccc(CCC(=O)O)c(CNC(=O)OC(C)C)c1`, the IC50 amounted to 1490 nM.

Turning to `Cc1oc(-c2ccc(-c3ncccn3)cc2)nc1CCOc1ccc(CCC(=O)O)c(CNC(=O)OC(C)C)c1`, the IC50 was 9940 nM.

Molecule `Cc1oc(-c2ccc(-c3ccccc3)cc2)nc1CCOc1ccc(CCC(=O)O)c(CNC(=O)Oc2cnccn2)c1` came in with an IC50 of 449 nM.

On to `Cc1oc(-c2ccc(Oc3ccccc3)cc2)nc1CCOc1ccc(CCC(=O)O)c(CNC(=O)OC(C)C)c1`, for which the IC50 came out at 516 nM.

`Cc1oc(-c2ccccc2)nc1CCOc1ccc(CCC(=O)O)c(CNC(=O)OCc2ccccc2)c1` gave an IC50 of 441 nM.

`Cc1oc(-c2ccccc2)nc1CCOc1ccc(CCC(=O)O)c(CNC(=O)OC(C)C)c1` displayed an IC50 of 146 nM.

`CC(C)(Oc1ccc(C(=O)c2ccc(Cl)cc2)cc1)C(=O)O` [FENOFIBRIC ACID] displayed an IC50 of more than 10000 nM.

Another experiment concerns Mus musculus. As to the kind of experiment: Reduction of plasma glucose level in db/db mouse at 30 mg/kg, po relative to rosiglitazone. Type of experiment: functional. Set-up: scale not given: the % may be the effect or the level left.
Details: not given
Regarding `Cc1oc(-c2ccc(-c3ccccc3)cc2)nc1CCOc1ccc(CCC(=O)O)c(CNC(=O)OC(C)C)c1`, the Activity was 56%.

`Cc1sc(N2CCOCC2)nc1CCOc1ccc(CCC(=O)O)c(CNC(=O)OC(C)C)c1` gave an Activity of 58%.

`Cc1oc(-c2ccc(-c3ncccn3)cc2)nc1CCOc1ccc(CCC(=O)O)c(CNC(=O)OC(C)C)c1` gave an Activity of 52%.

Regarding `Cc1oc(-c2ccc(-c3ccccc3)cc2)nc1CCOc1ccc(CCC(=O)O)c(CNC(=O)Oc2cnccn2)c1`, the Activity is recorded as 87%.

`Cc1oc(-c2ccccc2)nc1CCOc1ccc(CCC(=O)O)c(CNC(=O)OC(C)C)c1` registered an Activity of 58%.

The target in a further experiment is T3, Peroxisome proliferator-activated receptor alpha. As to the kind of experiment: Activity at human PPARalpha in CV1 cells. Type of experiment: cell-based, CV-1.
Details: not given
As for `Cc1oc(-c2ccccc2)nc1CCOc1ccc(CCC(=O)O)c(CNC(=O)Oc2cnccn2)c1`, the midpoint of the response, the EC50, lay at 35 nM.

For the molecule `Cc1oc(-c2ccccc2)nc1CCOc1ccc(CCC(=O)O)c(CNS(=O)(=O)Cc2ccccc2)c1`, the EC50 stood at 2940 nM.

Turning to `Cc1oc(-c2ccc(-c3ccccc3)cc2)nc1CCOc1ccc(CCC(=O)O)c(CNC(=O)OC(C)C)c1`, the EC50 turned out to be 845 nM.

`Cc1oc(-c2ccccc2)nc1CCOc1ccc(CCC(=O)O)c(CNC(=O)CCc2ccccc2)c1`: the EC50 came to 2800 nM.

In the case of `Cc1sc(N2CCOCC2)nc1CCOc1ccc(CCC(=O)O)c(CNC(=O)OC(C)C)c1`, a half-maximal effect (EC50) was put at 986 nM.

Molecule `Cc1oc(-c2ccc(-c3ncccn3)cc2)nc1CCOc1ccc(CCC(=O)O)c(CNC(=O)OC(C)C)c1` gave an EC50 of 900 nM.

Molecule `Cc1oc(-c2ccc(-c3ccccc3)cc2)nc1CCOc1ccc(CCC(=O)O)c(CNC(=O)Oc2cnccn2)c1` had an EC50 of 198 nM.

Turning to `Cc1oc(-c2ccc(Oc3ccccc3)cc2)nc1CCOc1ccc(CCC(=O)O)c(CNC(=O)OC(C)C)c1`, the EC50 is 78 nM.

Regarding `Cc1oc(-c2ccccc2)nc1CCOc1ccc(CCC(=O)O)c(CNC(=O)OCc2ccccc2)c1`, the EC50 came to 515 nM.

`Cc1oc(-c2ccccc2)nc1CCOc1ccc(CCC(=O)O)c(CNC(=O)OC(C)C)c1` yielded an EC50 of 70 nM.

`CC(C)(Oc1ccc(C(=O)c2ccc(Cl)cc2)cc1)C(=O)O` [FENOFIBRIC ACID] yielded an EC50 of 2650 nM.
